Test results taken from patent publication US20150126465A1, “PROCESS FOR PRODUCING DERIVATIVES OF PYROSTEGIA VENUSTA, DERIVATIVES OF PYROSTEGIA VENUSTA, PHARMACEUTICAL COMPOSITIONS AND ITS USES” (priority 2011, published 2015).
Converted amounts (≈) assume the structure as drawn. Where two headings read alike, the source gives them in different places.

Test system: Candida parapsilosis USP 1933
Experiment: MIC/CFM by microdilution (CLSI M27-A2)
Type: cell-based
Settings: Lodderomyces parapsilosis, USP1933; for MIC: read-out: MIC

MIC (Table 12, C. parapsilosis USP 1933, 48 h, 35° C.): 1 µg/mL (≈ 2.4 µM)
MIC (Table 14, C. parapsilosis USP 1933 ATCC): < 0.5 µg/mL
SMILES: Clc1ccc(COC(Cn2ccnc2)c2ccc(Cl)cc2Cl)c(Cl)c1 (stereo not drawn) [Miconazol]
MFC (Table 14, C. parapsilosis USP 1933 ATCC, read-out: CFM (Minimum Fungicidal Concentration)): < 0.5 µg/mL
